One block for each compound: values may come before it.
Experiments:
[1] = Clinical application: person with dyslipidemia, oral extended-release tafluprost (Example 8); format: in vivo, human; conditions: oral extended-release 5 mg daily, 1 to 6 months
Excerpt: The following description exemplifies a clinical application of the invention to reduce lipid concentrations in a patient with dyslipidemia and a history of coronary artery disease and myocardial infarction. A person with a history of obesity, hyperlipidemia, coronary artery disease, and myocardial infarction is found to have elevated serum triglycerides, total cholesterol, and low density lipoprotein, despite use of a statin. The person's physician prescribes an oral, extended-release formulation of tafluprost, for example, an extended-release tablet comprising 5 mg tafluprost, with instructions to take one capsule by mouth daily. After a period of time, for example from 1 to 6 months, the person's serum triglycerides, total cholesterol, and low density lipoprotein concentrations are reduced. Body weight is also seen to improve.

[2] = Minimum effective dose and projected systemic dose, rat (FIG. 12); format: in vivo
Excerpt: These effects were dose-dependent, and the minimum effective dose for these effects was deemed to be the 0.05% concentration.
(§1) FIG. 12 compares various topical doses of latanoprost in mouse, rat, and human, with respect to projected systemic dose. All calculations assume once-daily dosing and 100% serum bioavailability. The derivation of each dose is set forth based on the animal body weight, drug concentration, and drug volume. Finally, doses are scaled allometrically for body surface area (mg/m^2/d), as is appropriate for most low-molecular-weight molecules.

[3] = Clinical application: person with metabolic syndrome, latanoprost transdermal 0.7% gel (Example 7); format: in vivo, human; conditions: 2 ml once daily, 1 to 6 months
Method: The following description exemplifies a clinical application of the invention to treat obesity, dyslipidemia, and type 2 diabetes mellitus in a person with metabolic syndrome.
A person is suffers from obesity, dyslipidemia, and type 2 diabetes. […] Their waist circumference is 42 inches. Their noninvasive blood pressure is 184/98. Their fasting serum glucose is […] and their glycated hemoglobin (hemoglobin A1C) is 8.1. Fasting serum lipids are as follows: triglycerides, 220 mg/dL; total cholesterol, 310 mg/dL, LDL 240 mg/dL, HDL, 35 mg/dL. Their physical exam is notable for prominent central (abdominal) obesity. In addition to medical therapy, the person's physician recommends a regimen of diet and exercise. After six months the person's weight, hemoglobin A1C, serum glucose, and serum lipids are unimproved. The physician prescribes systemic therapy with latanoprost, for example, a transdermal 0.7% gel in a metered-dose dispenser, with instructions to apply 2 ml metered dose once daily to the skin of the shoulders. After a period of time, for example from 1 to 6 months, the person's weight is reduced. Serum glucose, hemoglobin A1C, fasting serum LDL, and fasting serum triglycerides also diminish. Fasting serum HDL rises.

[4] = in vivo; cited from earlier work
subcutaneous fat [5] = experiment: Histologic sections of skin and subcutaneous fat, ZDF rats; format: in vivo
Method: (§2) Methods: Male ZDF rats, approximately 8 weeks old, were obtained from Jackson Laboratories and acclimated to the facility. There were 3 animals per treatment arm. Test articles were applied in a thin film to the right flank without occlusive dressings, at 0.3 ml daily for 28 days. Rats were fed ad libitum and housed in the same room in 4 cages according to group. […] Food consumption was measured by residual weight of chow. Animals were fasted overnight prior to day 29, and Oral Glucose Tolerance Tests were conducted on day 29 (1 g glucose per kg body weight). Skin tissue and serum chemistries were collected at day 29.
All sections are shown at the same magnification (scale bar at top right=500 microns). The surface of the skin is oriented toward the top of each panel.

[6] = Oral Glucose Tolerance Test on day 29, ZDF rats; format: in vivo; conditions: for oral glucose tolerance: day 29; for serum glucose AUC15-120 lower compared to vehicle-treated animals: 15 to 120 minutes post-glucose load
Method: as §2

[7] = Human ophthalmic dose and projected human transdermal dose (FIG. 12); conditions: by comparison to minimum effective dose in the rat
Excerpt: as §1

[8] = Serum lipid levels on day 29, ZDF rats; format: in vivo
Method: as §2

[9] = Weight gain, food consumption and condition, 4-week study of latanoprost transdermal cream in ZDF rats; format: in vivo; conditions: for mean weight gain for days 0 to 29: 0.3 ml daily, vs vehicle
Method: A controlled, repeat-dose, 4-week, dose-ranging study of latanoprost transdermal cream was conducted in Zucker Diabetic Fatty (ZDF) rats (ZDF-Lepr^fa/Crl), which are defective for the leptin receptor, obese, hyperlipidemic, and diabetic.
as §2

[10] = Projected systemic dose, mouse (FIG. 12); format: in vivo; conditions: topical, 100% serum bioavailability assumed
Excerpt: as §1

subcutaneous fat [11] = experiment: Histologic sections of skin and subcutaneous fat, (db-/db-) mice; format: in vivo; conditions: for adipocytes and adipose layer, treated (right) flank / adipocytes and adipose layer, untreated (left) flank: day 28; for local versus systemic effect by histology: topical, concentration up to 0.3%
Method: (§3) Methods: Mice were obtained from Jackson Laboratories and acclimated to the facility. At about 5 weeks of age, mice were prospectively randomized into groups and assigned to the treatment conditions shown in FIG. 1. Topical treatments were applied in a thin film to the right flank skin without occlusive dressings; subcutaneous injections were also administered to the right flank. […] They were housed in the same room, in 11 cages according to group, and fed ad libitum. Skin tissue was sampled and serum lipids tested on day 28. Tissue was fixed in formalin and stained with hematoxylin and eosin.
All sections are shown at the same magnification (scale bar at top right=640 microns). The surface of the skin is oriented toward the top and left of each panel. Arrows in each section denote the panniculus carnosus, an anatomic layer that separates the first layer of subdermal fat from deeper, subpannicular fat (separation artifact is commonly seen deep to the panniculus and is not an in vivo process).

[12] = Weight gain and condition, 4-week repeat-dose trial in (db-/db-) mice; format: in vivo
Method: A randomized, controlled, repeat-dose, 4-week trial was conducted on (db−/db−) mice, which are defective for the leptin receptor (Jackson Laboratories). These mice are genetically obese, dyslipidemic, and diabetic.
as §3

[13] = Serum lipids on day 28, (db-/db-) mice; format: in vivo
Method: as §3
FIG. 5 charts the triglyceride and total cholesterol results (mg/dl) for the topical treatment conditions as follows: Group 1=C, 3=D, 4=E, 5=F, 6=G, 10=H, 11=I.

[14] = obese adults, 120 mg three times daily, after two years; cited from earlier work
[15] = topical 0.5% and 0.05%, day 29, vs vehicle, not statistically significant
[16] = transdermal/topical to right flank skin, vs vehicle

Compound: CC(C)OC(=O)CCC/C=C\C[C@@H]1[C@@H](/C=C/C(F)(F)COc2ccccc2)[C@H](O)C[C@@H]1O [tafluprost]
body weight [1]: improve | serum triglycerides, total cholesterol, low density lipoprotein concentrations [1]: reduced

daily observations and skin condition ([9]; topical 0.005-0.5%, 28 days): unremarkable
Compound: CC(C)OC(=O)CCC/C=C\C[C@@H]1[C@@H](CC[C@@H](O)CCc2ccccc2)[C@H](O)C[C@@H]1O [latanoprost, 17-phenyl-13,14-dihydro trinor prostaglandin F2α isopropyl ester]
minimum effective dose of topical latanoprost, as concentration ([2]; rat, equivalent of 0.05%): 0.5 mg/mL | systemic dose corresponding to minimum effective topical dose ([2]; rat, once-daily dosing, 100% serum bioavailability assumed, scaled for body surface area): 3.6 mg/m^2/d | minimum effective dose (concentration) for weight gain, serum lipids, glucose tolerance ([2]; transdermal, ZDF rat): 0.05% | fasting serum HDL [3]: rises | serum glucose, hemoglobin A1C, fasting serum LDL, fasting serum triglycerides [3]: diminish | weight [3]: reduced | serum elimination half-life [4]: about 17 minutes | adipocytes and adipose layer, treated (right) flank (subcutaneous fat [5]; topical 0.005%): fewer and smaller adipocytes, and a thinner adipose layer | adipocytes and adipose layer, untreated (left) flank (subcutaneous fat [5]; topical 0.005%): resembled that of a vehicle-treated animal | local versus systemic effect by histology (subcutaneous fat [5]; topical 0.005%): local effect, but not a systemic effect | adipocytes, adipose layer and dermis, treated flank (subcutaneous fat [5]; topical 0.5%): fewer and smaller adipocytes, and thinner adipose layer and dermis | adipocytes, adipose layer and dermis, untreated flank (subcutaneous fat [5]; topical 0.5%): fewer and smaller adipocytes, and thinner adipose layer and dermis | local versus systemic effect by histology (subcutaneous fat [5]; topical 0.5%): indicative of a systemic effect | oral glucose tolerance ([6]; topical 0.005%): no effect on oral glucose tolerance | serum glucose AUC15-120 lower compared to vehicle-treated animals ([6]; topical 0.05%): 12% | oral glucose tolerance ([6]; topical 0.5% and 0.05%): dose-dependent improvements in oral glucose tolerance | serum glucose AUC15-120 lower compared to vehicle-treated animals ([6]; topical 0.5%): 26% | predicted human transdermal dose sufficient for systemic benefit (serum lipids, diabetic condition, obesity) [7]: about 7 mg per day | serum lipid benefits (triglycerides, LDL, HDL, HDL:LDL ratio) ([8]; topical 0.005%, day 29): absent | HDL:LDL ratio ([8]; topical 0.5% and 0.05%, day 29, vs vehicle, 0.5% one-sided p<0.05): dose-dependent increases | serum HDL [8, 15]: dose-dependent increases | serum LDL [8, 15]: dose-dependent reductions | serum triglycerides [8, 15]: dose-dependent reductions | mean weight gain for days 0 to 29 ([9]; topical 0.005%): dose-dependent reductions in weight gain | mean weight gain for days 0 to 29 ([9]; topical 0.05%): dose-dependent reductions in weight gain, which were statistically significant | mean weight gain for days 0 to 29 ([9]; topical 0.5%): dose-dependent reductions in weight gain, which were statistically significant

Compound: CC(C)OC(=O)CCC/C=C\C[C@@H]1[C@@H](/C=C/[C@@H](O)CCc2ccccc2)[C@H](O)C[C@@H]1O [BIE, 17-phenyl trinor prostaglandin F2α isopropyl ester]
systemic dose at which serum lipids and obesity responded [10]: 10 mg/m^2/d | adipocytes deep to the panniculus (subcutaneous fat [11]; topical 0.3%): profound shrinkage of adipocytes deep to the panniculus | adipocytes and adipose layer, treated (right) flank (subcutaneous fat [11]; topical 0.3%): smaller adipocytes and thinner adipocyte layers | adipocytes and adipose layer, untreated (left) flank (subcutaneous fat [11]; topical 0.3%): smaller adipocytes and thinner adipocyte layers | local versus systemic effect by histology (subcutaneous fat [11]): indicative of a systemic effect | mean weight gain for days 0 to 28 ([12]; subcutaneous, right flank): no significant effect on weight gain | potency of transdermal BIE relative to transdermal BFA, for each effect (weight gain, serum lipids) ([12]; transdermal): more potent | mean weight gain for days 0 to 28 [12, 16]: reduced weight gain significantly and in a dose-dependent manner | serum lipids ([13]; subcutaneous, day 28): no significant effect on serum lipids | serum total cholesterol ([13]; transdermal 0.1%, unfasted, day 28): significantly lower

Compound: O=C(O)CCC/C=C\C[C@@H]1[C@@H](/C=C/[C@@H](O)CCc2ccccc2)[C@H](O)C[C@@H]1O [BFA, 17-phenyl trinor prostaglandin F2α]
mean weight gain for days 0 to 28 ([12]; intraperitoneal): no significant effect on weight gain | mean weight gain for days 0 to 28 ([12]; subcutaneous, right flank): no significant effect on weight gain | mean weight gain for days 0 to 28 [12, 16]: reduced weight gain significantly and in a dose-dependent manner | serum lipids ([13]; intraperitoneal, day 28): no significant effect on serum lipids | serum lipids ([13]; subcutaneous, day 28): no significant effect on serum lipids | serum triglycerides ([13]; transdermal 0.1% or 0.3%, unfasted, day 28, vs control): significantly reduced

Compound: CCCCCCCCCCC[C@@H](C[C@@H]1OC(=O)[C@H]1CCCCCC)OC(=O)[C@H](CC(C)C)NC=O [Orlistat]
loss of baseline body weight [14]: 8.8% | serum lipids and serum glucose [14]: not accompanied by any absolute improvement in serum lipids or serum glucose

Compound: CCNC(=O)CCC/C=C\C[C@@H]1[C@@H](/C=C/[C@@H](O)CCc2ccccc2)[C@H](O)C[C@@H]1O [bimatoprost, 17-phenyl trinor prostaglandin F2α ethyl amide]
adipocytes and adipose layer, treated (right) flank (subcutaneous fat [11]; topical 0.3%): smaller adipocytes and a thinner adipose layer | adipocytes and adipose layer, untreated (left) flank (subcutaneous fat [11]; topical 0.3%): resembled that of a vehicle-treated animal | local versus systemic effect by histology (subcutaneous fat [11]): local effect, but not a systemic effect | serum lipids ([13]; topical, day 28): no significant effect on serum lipids

Source: patent publication US10335418B2, “Methods and compositions for treating metabolic syndrome” (Topokine Therapeutics, Inc., priority 2011, dated 2019)
